Measurements: PubChem BioAssay AID1963980 (Molecular Pharmacology Branch, DTP, NCI, 2024)
“And” between values parts separate entries of the source, which are not always exact repeats. Equal values may be shown once.

What follows are molecules tested on 475296-252-R-J1-PDC spheroid viability (assay: Anticancer human tumor 475296-252-R-J1-PDC patient-derived rectal carcinoma cell line growth inhibition [PI3K]). Conditions: compound 3.16 µM; stronger effect = lower value; spheroids with HUVEC and MSC.
From the text: Combinatorial screen of targeted agents with the PI3K inhibitors inavolisib, alpelisib, duvelisib, and copanlisib in multi-cell type tumor spheroids
A high-throughput screen of multi-cell type tumor spheroids was designed to identify active combinations of targeted small molecules and PI3K pathway inhibitors. Complex spheroids include a stromal component modeled by human endothelial cells (HUVEC) and fibroblasts modeled by human mesenchymal stem cells (MSCs). The concentration ranges selected for each drug and investigational agent were based upon clinically achievable concentrations if the clinical Cmax of the agent was known.
Compounds. The drugs and investigational agents: inavolisib (NSC800729), alpelisib (NSC765974), duvelisib (NSC772469), copanlisib (NSC816437), ipatasertib (NSC767898), afuresertib (NSC778305), talazoparib (NSC767125), sapanisertib (NSC764658), selumetinib (NSC741078), tovorafenib (DAY101, NSC766906), vemurafenib (NSC761431), ravoxertinib (NSC781343), sotorasib (NSC818433), MRTX1133 (NSC 836407), abemaciclib (NSC 768073), palbociclib (NSC758247), venetoclax (NSC 766270), SY5609 (NSC837396), enzalutamide (NSC755605), and darolutamide (NSC825331), were obtained from the National Cancer Institute (NCI) Developmental Therapeutics Program Chemical Repository. The FDA-approved anticancer drug set is available from the NCI Developmental Therapeutics Program. […] The stock solutions were prepared in dimethyl sulfoxide (DMSO, Sigma-Aldrich, St. Louis, MO, cat. D2650) at 800-fold the tested concentration and stored at -70 degrees C prior to their use. All drugs and investigational agents were tested over a range starting from a high concentration at or near the clinical Cmax and decreasing in half-log increments. If the clinical Cmax for an agent had not been determined, the highest concentration tested was 10 microM.
Cell Culture. All cells were maintained in an incubator at 37 degrees C and 5% CO2 with 95% humidity. The PDC lines were cultured according to standard operating procedures established by the NCI PDMR (https://pdmr.cancer.gov/sops/default.htm). All PDCs were thawed and cultured in Matrigel-coated flasks prepared with a working solution of 1X Ham's F-12 nutrient mix, without supplementation (Invitrogen, Waltham, MA, cat. 11765054), 100 U/mL penicillin-streptomycin (Invitrogen, cat. 15140122), and 2.5% Matrigel (Corning Inc., Corning, NY, cat. 354248) for the first three passages. The 354836-022-R-J1-PDC, 475296-252-R-J1-PDC, and 997726-040-R-J2-PDC lines were cultured in 6A media, which includes advanced DMEM/F-12 (Thermo Fisher Scientific, cat. 12634028), 10 mM HEPES (Thermo Fisher Scientific, cat. 15630080), 1X GlutaMAX supplement (Thermo Fisher Scientific, cat. 35050061), 0.1 mg/mL primocin (InvivoGen, San Diego, CA, cat. ant-pm-2), 10% defined fetal bovine serum, heat inactivated (HyClone Laboratories Inc., Logan, UT, cat. SH30070.03HI), 50% L-WRN conditioned media (ATCC, cat. CRL-3276), 1.25 mM N-Acetyl-L-cysteine (Sigma-Aldrich, cat. A9165), 10 mM nicotinamide (Sigma-Aldrich, cat. N0636), 1X B-27 supplement (Thermo Fisher Scientific, cat. 17504044), 1X N-2 supplement (Thermo Fisher Scientific, cat. 17502048), and 10 microM Y-27632 dihydrochloride (Tocris Bioscience, Bristol, United Kingdom, cat. 1254). The 624824-186-R-J2-PDC line was cultured in 6C/Colon 1B media, which includes all 6A media components plus 50 ng/mL human EGF recombinant protein (Thermo Fisher Scientific, cat. PHG0311). […]
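Also: spheroids exposed to agents for seven days before readout.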

Question: Which viability, T/C does the source give for `CCCS(=O)(=O)Nc1ccc(F)c(C(=O)c2c[nH]c3ncc(-c4ccc(Cl)cc4)cc23)c1F` here?
Answer: Its viability, T/C is 98.2% [middle of 4 runs].

Question: `C[C@@H](NC(=O)c1ncnc(N)c1Cl)c1ncc(C(=O)Nc2cc(C(F)(F)F)c(Cl)cn2)s1` was tested. Which viability, T/C did it give?
Answer: Its viability, T/C is 103% [middle of 4 runs].

Question: Which viability, T/C does the source give for `Cc1nc(NC(=O)N2CCCC2C(N)=O)sc1-c1ccnc(C(C)(C)C(F)(F)F)c1` (centres undefined) here?
Answer: Its viability, T/C is 90.8% [middle of 8 runs].

Question: For `Cn1ncc(Cl)c1-c1cc(C(=O)NC(CN)Cc2cccc(F)c2)sc1Cl` (centres undefined), which viability, T/C is on record?
Answer: Its viability, T/C is 75.9% [middle of 4 runs].

Same assay, conditions: compound 10 µM; stronger effect = lower value; spheroids with HUVEC and MSC

Question: How did the viability, T/C turn out when `CC(C)NCC(C(=O)N1CCN(c2ncnc3c2C(C)CC3O)CC1)c1ccc(Cl)cc1` (centres undefined) was run?
Answer: The viability, T/C was 62.3% [middle of 4 runs].

Question: For `CC(Cn1ccc(-c2ccc(C#N)c(Cl)c2)n1)NC(=O)c1cc(C(C)O)[nH]n1` (centres undefined), which viability, T/C is on record?
Answer: Its viability, T/C is 105% [middle of 4 runs].

Question: Which viability, T/C does the source give for `CC(Nc1ncnc2nc[nH]c12)c1cc2cccc(Cl)c2c(=O)n1-c1ccccc1` (centres undefined) here?
Answer: The viability, T/C was 94.9% [middle of 8 runs].

Question: Which viability, T/C does the source give for `CCCS(=O)(=O)Nc1ccc(F)c(C(=O)c2c[nH]c3ncc(-c4ccc(Cl)cc4)cc23)c1F` here?
Answer: Its viability, T/C is 95.3% [middle of 4 runs].

Question: How did the viability, T/C turn out when `C[C@@H](NC(=O)c1ncnc(N)c1Cl)c1ncc(C(=O)Nc2cc(C(F)(F)F)c(Cl)cn2)s1` was run?
Answer: Its viability, T/C is 87.5% [middle of 4 runs].

Question: How did the viability, T/C turn out when `Cc1nc(NC(=O)N2CCCC2C(N)=O)sc1-c1ccnc(C(C)(C)C(F)(F)F)c1` (centres undefined) was run?
Answer: The viability, T/C was 81.6% [middle of 8 runs].

Question: `Cn1ncc(Cl)c1-c1cc(C(=O)NC(CN)Cc2cccc(F)c2)sc1Cl` (centres undefined) was tested. Which viability, T/C did it give?
Answer: Its viability, T/C is 70.7% [middle of 4 runs].

Question: Which viability, T/C does the source give for `Cn1nccc1Nc1nccc(-c2ccn(C(CO)c3ccc(Cl)c(F)c3)c(=O)c2)n1` (centres undefined) here?
Answer: The viability, T/C was 82.3% [middle of 4 runs].

Same assay, conditions: compound alone; run of 06/12/2023; spheroids with HUVEC and MSC

Question: With `CC(Nc1ccc2c(c1)OCCn1cc(N3C(=O)OCC3C(F)F)nc1-2)C(N)=O` (centres undefined) as the molecule, how does the IC50 read?
Answer: The IC50 was greater than 1 µM.

Question: `Cc1nc(NC(=O)N2CCCC2C(N)=O)sc1-c1ccnc(C(C)(C)C(F)(F)F)c1` (centres undefined) was tested. Which IC50 did it give?
Answer: Its IC50 is greater than 10 µM.

Same assay, conditions: compound alone; run of 06/13/2023; spheroids with HUVEC and MSC

Question: With `CC(Nc1ncnc2nc[nH]c12)c1cc2cccc(Cl)c2c(=O)n1-c1ccccc1` (centres undefined) as the molecule, how does the IC50 read?
Answer: Its IC50 is greater than 10 µM.

Question: For `COc1c(OCCCN2CCOCC2)ccc2c3n(c(=NC(=O)c4cnc(N)nc4)nc12)CCN3`, which IC50 is on record?
Answer: The IC50 was greater than 1 µM.

Same assay, conditions: curve of compound; spheroids with HUVEC and MSC

Question: For `CC(=O)c1c(C)c2cnc(Nc3ccc(N4CCNCC4)cn3)nc2n(C2CCCC2)c1=O`, which IC50 is on record?
Answer: Its IC50 is greater than 0.1 µM.

Question: For `CC(C)NCC(C(=O)N1CCN(c2ncnc3c2C(C)CC3O)CC1)c1ccc(Cl)cc1` (centres undefined), which IC50 is on record?
Answer: Its IC50 is greater than 10 µM.

Question: How did the IC50 turn out when `CC(C)n1nc(-c2ccc3oc(N)nc3c2)c2c(N)ncnc21` was run?
Answer: The IC50 was greater than 0.1 µM.

Question: Which IC50 does the source give for `CC(Cn1ccc(-c2ccc(C#N)c(Cl)c2)n1)NC(=O)c1cc(C(C)O)[nH]n1` (centres undefined) here?
Answer: Its IC50 is greater than 10 µM.

Question: For `CC1(C)CCC(CN2CCN(c3ccc(C(=O)NS(=O)(=O)c4ccc(NCC5CCOCC5)c([N+](=O)[O-])c4)c(Oc4cnc5[nH]ccc5c4)c3)CC2)=C(c2ccc(Cl)cc2)C1`, which IC50 is on record?
Answer: The IC50 was greater than 10 µM.

Question: How did the IC50 turn out when `CC1(C)CCC(Nc2ncc(C(F)(F)F)c(-c3c[nH]c4c(P(C)(C)=O)c(C#N)ccc34)n2)CN1` (centres undefined) was run?
Answer: The IC50 was greater than 10 µM.

Question: How did the IC50 turn out when `CCCS(=O)(=O)Nc1ccc(F)c(C(=O)c2c[nH]c3ncc(-c4ccc(Cl)cc4)cc23)c1F` was run?
Answer: Its IC50 is greater than 10 µM.

Question: Which IC50 does the source give for `CCN1CCN(Cc2ccc(Nc3ncc(F)c(-c4cc(F)c5nc(C)n(C(C)C)c5c4)n3)nc2)CC1` here?
Answer: Its IC50 is greater than 1 µM.

Question: How did the IC50 turn out when `C[C@@H](NC(=O)c1ncnc(N)c1Cl)c1ncc(C(=O)Nc2cc(C(F)(F)F)c(Cl)cn2)s1` was run?
Answer: Its IC50 is greater than 10 µM.

Question: How did the IC50 turn out when `Cn1cnc2c(F)c(Nc3ccc(Br)cc3Cl)c(C(=O)NOCCO)cc21` was run?
Answer: The IC50 was > 3 µM and 2.76 µM.

Question: For `Cn1ncc(Cl)c1-c1cc(C(=O)NC(CN)Cc2cccc(F)c2)sc1Cl` (centres undefined), which IC50 is on record?
Answer: Its IC50 is greater than 10 µM.

Question: `Cn1nccc1Nc1nccc(-c2ccn(C(CO)c3ccc(Cl)c(F)c3)c(=O)c2)n1` (centres undefined) was tested. Which IC50 did it give?
Answer: The IC50 was greater than 10 µM.

Question: With `Cn1ncnc1[C@H]1c2n[nH]c(=O)c3cc(F)cc(c23)N[C@@H]1c1ccc(F)cc1` as the molecule, how does the IC50 read?
Answer: Its IC50 is greater than 0.1 µM.
